PubChem BioAssay (NCI)
“And” between values parts separate entries of the source, which are not always exact repeats. Identical values can stand only once.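 Cultured in 96-well plates, cells were exposed to test compound for 48 hours across five concentrations. Here, GI50 denotes the concentration required for 50% inhibition of growth. TGI: total growth inhibition.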 Where a SMILES comes first, the peptide text is derived from it. The star is where a group is joined. Cbz = O=C(OCc1ccccc1)*

Each compound was assayed on T-47D breast (assay: NCI anticancer screen, dose series, 48 h).

Going from `N#Cc1cc2c(cc1Cl)Sc1nnc(Nc3ccccc3)n1S2(=O)=O` to `COCn1cnc2c(=O)nc(SC)n(-c3ccccc3)c21`, the TGI rises from 13.3 µM to over 100 µM.

What follows are compounds tested on MDA-MB-435 (assay: NCI anticancer screen, dose series, 48 h).

`COc1ccc(CNc2nc(NC3CCCCC3)nc(NC3CCCCC3)n2)cc1` and `C=C1CCCCCCCCC/C=C/1SCCCSC` cannot be ordered by TGI: over 100 µM for the first, over 100 µM for the second.

`CN(C)CCCNc1ccc2ncn3c4ccc(O)cc4c(=O)c1c23` and `CCCCC1Cc2cc(O)ccc2-c2nc3cc(O)ccc3n21` (stereo unspecified) (tested in a mixture with another compound) are within 1.5-fold of each other in TGI: 19.3 µM for the first, 26.1 µM for the second.

`S=C1NCCN1C(=S)Nc1ccccc1` and `Cc1[nH]n(-c2nc(O)c(-c3ccccc3)c(=O)[nH]2)c(=O)c1CCO` cannot be ordered by TGI: over 100 µM for the first, over 100 µM for the second.

`CC1CC(Nc2ccc(Br)cc2)N(C(=O)c2ccc(Br)cc2)O1` (stereo unspecified) and `CN1CCCOC(c2ccc(Cl)cc2)O1` (stereo unspecified) cannot be ordered by TGI: over 10 µM for the first, over 100 µM for the second.

`OC(C/C=N/N=C/CC(O)(C(F)(F)Cl)C(F)(F)Cl)(C(F)(F)Cl)C(F)(F)Cl` and `C/C=C\C(CC(=O)NCC(=O)c1c[nH]c2ccccc12)CC(=O)OC` (stereo unspecified) cannot be ordered by TGI: over 10 µM for the first, over 100 µM for the second.

First: COc1cc2c(cc1O)NC(=O)[C@@H]1CCCN1C2=O
Second: CC(=O)c1c(N=[N+]=[N-])c2cccc3c2n(c1=O)CCC3
The TGI of the first is higher: over 100 µM for the first, 42.7 µM for the second.

`O=C1C=C(Nc2ccc(S(=O)(=O)Nc3nccs3)cc2)c2ccccc2C1=O` and `Cc1c2ccc3ccccc3c2c[n+]2ccccc12` are within 1.5-fold of each other in TGI: 33.5 µM for the first, 35.2 µM for the second.

First: C=CC1(CC[C@]2(c3ccc(OC)c(OC)c3)C=[N+]([O-])O[C@H](O[C@@H]3CCCC[C@H]3C(C)(C)c3ccccc3)C2)OCC(C)(C)CO1
Second: O=P1(Cc2ccccc2)N(Cc2ccccc2)[C@@H]2CCCC[C@H]2N1Cc1ccccc1
The TGI of the first is higher: over 51.1 µM for the first, 19.8 µM for the second.

First: Oc1c(Br)ccc2cccnc12
Second: O=C1C(Br)=CC2(C=C1Br)CCNC1=C2C(=O)c2ncccc2C1=O
The TGI of the first is higher: over 100 µM for the first, 0.354 µM for the second.

`O=c1[nH]c2nc3ccccc3c(=O)n2/c1=C/c1cccs1` and `COCn1cnc2c(=O)nc(SC)n(-c3ccccc3)c21` cannot be ordered by TGI: over 100 µM for the first, over 100 µM for the second.

Compared with `CC(=O)SC(C[N+](=O)[O-])c1ccc2c(c1)OCO2` (stereo unspecified), `CC(NC(=O)c1c(O)[nH]c(=S)[nH]c1=O)c1ccc([N+](=O)[O-])cc1` (stereo unspecified) is higher in TGI: 17.6 µM for the first, over 100 µM for the second.

Going from `Cc1ccc(CSC(N)=Nc2ccccc2)cc1C` to `CC(NC(=O)Cc1ccccc1)NC(=O)C(C)C(=O)NCc1ccccc1` (stereo unspecified), the TGI rises from 30.7 µM to over 100 µM.

Compared with `NCCCN(CCCN)CCc1cn(C(=O)c2ccccc2)cn1`, `CCOC(=O)CCC(NC(=O)C(Cc1ccccc1)NC(=O)OCc1ccccc1)C(=O)OCC` (stereo not drawn) (Cbz-Phe-Glu(OEt)-OEt; configuration not given here) is 2.5-fold higher in TGI: 14.3 µM for the first, 35.5 µM for the second.

Compared with `CC(=O)OCC1OC(n2c(C)c(N=Nc3ccc(Cl)cc3)c(C)c(C#N)c2=S)C(OC(C)=O)C(OC(C)=O)C1OC(C)=O` (stereo unspecified), `CCOC(=O)c1c(OCC)[nH]c(=O)c(C(c2cccs2)c2c(O)c(C(=O)OCC)c(OCC)[nH]c2=O)c1O` is lower in TGI: over 100 µM for the first, 32.4 µM for the second.

Compared with `Cn1nnnc1SC(F)(F)c1nc2ccccc2o1`, `N#Cc1cc2c(cc1Cl)Sc1nnc(Nc3ccccc3)n1S2(=O)=O` is lower in TGI: over 100 µM for the first, 4.8 µM for the second.

First: CCCCCCCCCCCC(=O)OC[C@@H](C[As](=O)(O)O)OC(=O)CCCCCCCCCCC
Second: CC(=O)Nc1c(C(=N)C#N)ncn1CCO
The TGI of the first is lower: 15 µM for the first, over 100 µM for the second.

First: O=[N+]([O-])c1c(F)c(F)c2c(c1F)N(CCCCCl)c1ccccc1S2
Second: O=C1/C(=C\c2cccc(Oc3ccccc3)c2)S(=O)(=O)C(c2ccccc2)N1c1cccc(Cl)c1 (stereo unspecified)
The TGI of the first is lower: 20.2 µM for the first, over 100 µM for the second.

Going from `Cc1ccnc2c1C(=O)C1=C(OC(C)(C)CC1O)C2=O` (stereo unspecified) to `CN1CCc2c(sc3[nH]c(=S)[nH]c(=S)c23)C1`, the TGI rises from 2.73 µM to over 100 µM.

With `CC(=O)c1ccc2c(c1)C(=O)c1sc(C(C)=O)cc1C2=O` the GI50 was 0.176 µM.

For `CC(=O)c1ccc2c(c1)C(=O)c1sc(C(C)=O)cc1C2=O`, the TGI was 2.63 µM and 0.33 µM.

These compounds were tested on NCI-H23 lung (assay: NCI anticancer screen, dose series, 48 h).

Going from `COc1ccc(CNc2nc(NC3CCCCC3)nc(NC3CCCCC3)n2)cc1` to `C=C1CCCCCCCCC/C=C/1SCCCSC`, the TGI rises from 12.6 µM to over 100 µM.

Compared with `CN(C)CCCNc1ccc2ncn3c4ccc(O)cc4c(=O)c1c23`, `Cc1[nH]n(-c2nc(O)c(-c3ccccc3)c(=O)[nH]2)c(=O)c1CCO` is higher in TGI: 10.7 µM for the first, over 100 µM for the second.

First: S=C1NCCN1C(=S)Nc1ccccc1
Second: Cc1ccc(CSC(N)=Nc2ccccc2)cc1C
The TGI of the first is higher: over 100 µM for the first, 57 µM for the second.

`CC1CC(Nc2ccc(Br)cc2)N(C(=O)c2ccc(Br)cc2)O1` (stereo unspecified) and `O=C1C=C(Nc2ccc(S(=O)(=O)Nc3nccs3)cc2)c2ccccc2C1=O` cannot be ordered by TGI: over 10 µM for the first, over 100 µM for the second.

`OC(C/C=N/N=C/CC(O)(C(F)(F)Cl)C(F)(F)Cl)(C(F)(F)Cl)C(F)(F)Cl` and `C=CC1(CC[C@]2(c3ccc(OC)c(OC)c3)C=[N+]([O-])O[C@H](O[C@@H]3CCCC[C@H]3C(C)(C)c3ccccc3)C2)OCC(C)(C)CO1` cannot be ordered by TGI: over 10 µM for the first, over 100 µM for the second.

Compared with `COc1cc2c(cc1O)NC(=O)[C@@H]1CCCN1C2=O`, `CC(=O)SC(C[N+](=O)[O-])c1ccc2c(c1)OCO2` (stereo unspecified) is lower in TGI: over 100 µM for the first, 34.6 µM for the second.

Compared with `Oc1c(Br)ccc2cccnc12`, `O=c1[nH]c2nc3ccccc3c(=O)n2/c1=C/c1cccs1` is higher in TGI: 7.28 µM for the first, over 100 µM for the second.

Compared with `NCCCN(CCCN)CCc1cn(C(=O)c2ccccc2)cn1`, `CC(NC(=O)Cc1ccccc1)NC(=O)C(C)C(=O)NCc1ccccc1` (stereo unspecified) is higher in TGI: 36.7 µM for the first, over 100 µM for the second.
